Publication PMC6130489, “Caffeic acid methyl and ethyl esters exert potential antidiabetic effects on glucose and lipid metabolism in cultured murine insulin-sensitive cells through mechanisms implicating activation of AMPK” (Pharmaceutical Biology, 2017)
Several values for one entry are separate records, joined by “and”; a condition that tells them apart may be missing. Identical values can stand only once.

Experiments:
[1] = system: GLUT1; assay: Western immunoblot GLUT1 protein content in L6 myotubes; type: cell-based, rat; settings: 50 μM, 18 h
Method: L6 cells myotubes, H4IIE cells and 3T3-L1 adipocytes were treated with either CAME, CAEE (50 μM each) or vehicle (DMSO) for 18 h. Insulin (100 nM) or aminoimidazole carboxamide ribonucleotide (AICAR; 1 mM) were added to some vehicle-treated wells 30 min prior to the end of the treatment and served as the positives controls. Protein content was assayed by the bicinchoninic acid method (Thermo Scientific Pierce Protein Research, Rockford, IL) standardized to bovine serum albumin. Western immunoblotting was performed as described elsewhere (Eid et al. [2010]). […] Immunoreactive bands were visualized by enhanced chemiluminescence and quantified by the Scion Image program (Scion Corporation, Frederick, MD). […]
Figure 1. […] Cells were treated as previously described, cell surface GLUT4myc was detected by an enzyme-linked colorimetric assay. […] Results represent the means ± SEM of three independent experiments, and 3-4 cells were analyzed for each condition per experiment. *Indicates a significant (p ≤ 0.05) difference, **(p < 0.01) from the vehicle control group as assessed by ANOVA. […] Data are expressed as (D) phospho-AMPK/β-actin, (E) GLUT4/β-actin and (F) GLUT1/β-actin and are given as mean ± SEM from 3 experiments. *p < 0.05 indicates a significant difference, **(p < 0.01) from the vehicle control group.

[2] = system: GLUT4myc; assay: Cell surface GLUT4myc (GLUT4 translocation), OPD assay; type: cell-based, rat; settings: 50 μM, 18 h; L6-GLUT4myc
Method: L6-GLUT4myc myotubes grown in 24-well plates were serum-starved for 4 h and were incubated with either CAME or CAEE (50 μM) for 18 h or insulin (100 nM) for 15 min. Cell-surface GLUT4myc levels were measured by an antibody-coupled colorimetric assay (Niu et al. [2003]) using O-phenylenediamine dihydrochloride (OPD) reagent (1 mL/well) (Sigma-Aldrich, St. Louis, MO), an anti-c-myc antibody (1:200 dilution; Santa Cruz Biotechnology, Santa Cruz, CA) and horseradish peroxidase (HRP)-conjugated goat anti-rabbit IgG at 4 °C (1:1000 dilution; Cell Signaling Technologies, Danvers, MA).
Figure 1. (A) CAME and CAEE increase ^3H-deoxyglucose uptake in L6 GLUT4myc myotubes. Cells were treated with 50 μM of either CAME, CAEE, or with vehicle (0.1% DMSO) for 18 h. 100 nM insulin served as the positive control and was applied for the last 15 min of the treatment in vehicle-treated cells. Glucose uptake was performed as described in Materials and Methods section. (B) CAME and CAEE stimulate GLUT4 translocation in L6 GLUT4myc myotubes. Cells were treated as previously described, cell surface GLUT4myc was detected by an enzyme-linked colorimetric assay. By the end of the treatment, L6- GLUT4myc cells were labeled with anti-c-myc antibody as described in Materials and Methods section. Results represent the means ± SEM of three independent experiments, and 3-4 cells were analyzed for each condition per experiment. *Indicates a significant (p ≤ 0.05) difference, **(p < 0.01) from the vehicle control group as assessed by ANOVA. […] L6 myotubes treated with CAME or CAEE (50 μM each), DMSO (0.1%) for 18 h. Insulin (100 nM) and AICAR (2 mM) both applied for 30 min and served as positive controls. Immunoblots were probed with anti phospho-AMPK (Thr 172), anti-GLUT4, anti-GLUT1 and anti-phospho-Akt (Ser 473) antibodies as described in Materials and Methods section. […] Data are expressed as (D) phospho-AMPK/β-actin, (E) GLUT4/β-actin and (F) GLUT1/β-actin and are given as mean ± SEM from 3 experiments. *p < 0.05 indicates a significant difference, **(p < 0.01) from the vehicle control group.

[3] = system: Akt; assay: Western immunoblot phospho-Akt in 3T3-L1 adipocytes; type: cell-based, mouse; settings: 100 μM (Figure 4 legend)
Method: Insulin (100 nM) or aminoimidazole carboxamide ribonucleotide (AICAR; 1 mM) were added to some vehicle-treated wells 30 min prior to the end of the treatment and served as the positives controls. Protein content was assayed by the bicinchoninic acid method (Thermo Scientific Pierce Protein Research, Rockford, IL) standardized to bovine serum albumin. Western immunoblotting was performed as described elsewhere (Eid et al. [2010]). Membranes were incubated overnight with phospho-AMPK, phospho-Akt, GLUT4, GLUT1 and β-actin antibodies (1:1000 dilution, Cell Signalling Technology, Danvers, MA), or with PPAR-γ, SREBP-1 (1:200, Santa Cruze Biotechnology, Santa Cruz, CA), followed by incubation with HRP-coupled secondary antibody (1:10,000) for 1 h. Immunoreactive bands were visualized by enhanced chemiluminescence and quantified by the Scion Image program (Scion Corporation, Frederick, MD). Experiments were repeated on 3 different passages of cells, each passage containing all conditions in parallel.
Figure 4. CAME and CAEE inhibit C/EBP-β and PPAR-γ protein expression through mechanisms implicating AMPK pathway. Shown are representative blots of 3T3-adipocytes treated with the maximum nontoxic concentration (100 μM) of either CAME or CAEE. […] Data are expressed as C/EBP-β/β-actin (D), PPAR-γ/β-actin (E), phospho-Akt/pan-Akt (F) and phospho-AMPK/pan-AMPK (G). […]

| SMILES | effect on GLUT1 protein levels [1] | GLUT4 translocation, fold relative to DMSO [2] | Akt phosphorylation [3] |
| --- | --- | --- | --- |
| COC(=O)/C=C/c1ccc(O)c(O)c1 [CAME, CA methyl ester] | no effect | 1.73 ± 0.18 fold and 1.79 ± 0.18 fold | did not modulate |
| CCOC(=O)/C=C/c1ccc(O)c(O)c1 [CAEE, caffeic acid ethyl ester] | no effect | 1.95 ± 0.30 fold | did not modulate |
